Read-outs that look alike come from different tables or passages of the source.
Columns and labels:
[1] = tested on: Debaryomyces vanrijiae anthocyanase (DVantp, enzyme-4), native; test: Km determination via β-glucosidase activity, anthocyanase of D. vanrijiae (enzyme-4); assay type: biochemical; settings: read-out: Km value for cellobiose; established data
Description: Moreover, the molecular weight and the isoelectric point were taken from literature (A. Belancic et al., J. Agric. Food Chem., 51: 1453-1459).

[2] = tested on: Debaryomyces hansenii anthocyanase (Dantp, enzyme-2), native; test: Km determination via β-glucosidase activity, anthocyanase of D. hansenii (enzyme-2); assay type: biochemical; settings: read-out: Km value for cellobiose; native enzyme-2
Protocol: The biochemical examinations of the anthocyanase (enzyme-2) of D. hansenii were performed corresponding to the anthocyanases examined up to then. Thus, their biochemical parameters were determined by means of β-glucosidase activity determinations. […] D. hansenii anthocyanase has a temperature optimum of 55° C. and a pH optimum of 5.0. […] Furthermore, with this yeast, too, one started to establish the substrate spectrum.

[3] = tested on: Pichia etchellsii anthocyanase (Pantp, enzyme-5), native; test: Km determination via β-glucosidase activity, anthocyanase of P. etchellsii (enzyme-5); assay type: biochemical; settings: native enzyme-5
Protocol: The biochemical examinations of the anthocyanase (enzyme-5) of P. etchellsii were performed analogously to the anthocyanases examined up to then.
The temperature optimum was 50° C. and the optimal pH value was 6.5.

[4] = substrate: O=[N+]([O-])c1ccc(O[C@@H]2O[C@H](CO)[C@@H](O)[C@H](O)[C@H]2O)cc1; test: Km determination, recombinant anthocyanase (r-enzyme-1) of C. molischiana; assay type: biochemical, Candida molischiana; settings: other: recombinant anthocyanase (r-enzyme-1); pH 5.5
Protocol: (§1) A. adeninivorans G1211/pAL-ALEU2m-BGLN was tested for the presence of recombinant anthocyanase (Bglnp-r-enz-1). For doing so, the recombinant enzyme was isolated, purified and biochemically characterized.
(§2) The recombinant anthocyanase has parameters very similar to those of C. molischiana enzyme (FIG. 9 and FIG. 10).
(§3) The temperature optimum was established at 40° C. The temperature range in which this anthocyanase was still has more than 80% activity was between 37.5° C. and 50° C. The optimum pH value was 4.0. However, the recombinant anthocyanase has an essentially broader pH tolerance range than the anthocyanase synthesized in C. molischiana. Thus, its activity was still 80% with a pH value of 5.5.

[5] = substrate: OC[C@H]1O[C@@H](O[C@H]2[C@H](O)[C@@H](O)C(O)O[C@@H]2CO)[C@H](O)[C@@H](O)[C@@H]1O; test: as above; assay type: biochemical, Candida molischiana; settings: other: recombinant anthocyanase (r-enzyme-1); pH 5.5
Protocol: as §1, §2, §3

OC[C@H]1O[C@@H](O[C@H]2[C@H](O)[C@@H](O)C(O)O[C@@H]2CO)[C@H](O)[C@@H](O)[C@@H]1O (stereo partly drawn) [cellobiose]
Km [1]: 8.3 mM | Km [2]: 16.3 mM | Km ([3]; read-out: Km value for cellobiose): 84.5 mM

O=[N+]([O-])c1ccc(O[C@@H]2O[C@H](CO)[C@@H](O)[C@H](O)[C@H]2O)cc1 [pNPG]
Km ([3]; read-out: Km value for pNPG): 59.7 mM

B1: Candida molischiana anthocyanase (anthocyanin-β-glucosidase), recombinant, produced in Arxula adeninivorans (r-enzyme-1, rBglnp) (Kuraishia capsulata) (protein)
chain: KNISKAEMENLEHWWSYGRSDPVYPSPEISGLGDWQFAYQRAREIVALMTNEEKTNLTFGSSGDTGCSGMISDVPDVDFPGLCLQDAGNGVRGTDMVNAYASGLHVGASWNRQLAYDRAVYMGAEFRHKGVNVLLGPVVGPIGRVATGGRNWEGFTNDPYLAGALVYETTKGIQENVIACTKHFIGNEQETNRNPSGTYNQSVSANIDDKTMHELYLWPFQDSVRAGLGSIMGSYNRVNNSYACKNSKVLNGLLKSELGFQGFVVSDWGGQHTGIASANAGLDMAMPSSTYWEEGLIEAVKNGTVDQSRLDDMATRIIAAWYKYARLDDPGFGMPVSLAEDHELVDARDPAAASTIFQGAVEGHVLVKNENALPLKKPKYISLFGYDGVSTDVNTVGGGFSFFSFDVKAIENKTLISGGGSGTNTPSYVDAPFNAFVAKAREDNTFLSWDFTSAEPVANPASDACIDFINAAASEGYDRPNLADKYSDKLVEAVASQCSNTIVVIHNAGIRLVDNWIEHENVTGVILAHLPGQDTGTSLIEVLYGNQSPSGRLPYTVAKKASDYGGLLWPTEPEGDLDLYFPQSNFTEGVYIDYKYFIQKNITPRYEFGYGLTYTTFDYSELEVDAITNQSYLPPDCTIEEGGAKSLWDIVATVKFTVTNTGDVAAAEVPQLYVGIPNGPPKVLRGFDKKLIHPGQSEEFVFELTRRDLSTWDVVAQNWGLQAGTYQFYVGRSVFDVPLTSALVFTN
Km [4]: 5.56 mM | Km [5]: 58.27 mM

From patent US20070066505A1, “Anthocyanases as detergent additives” (priority 2005, published 2007)
